The values below come from patent US20240124503A1, “HETEROAROMATIC PHOSPHONIUM SALTS AND THEIR USE TREATING CANCER” (FLORATEK PHARMA S.A., priority 2021, published 2024).

Like-named read-outs stand apart in the source and are kept apart here. Where only a bound is given, the exact number is not on record here.

Assay type in all cases: cell-based
The subject of assay [1] is 22Rv1. Briefly: Cell viability assay, 22Rv1. The note with it: prostate carcinoma cell line 22Rv1. As to the method:
(§1) Antitumor activity of the compounds and doxorubicin as a positive control was assessed by using the CellTiter-Blue Cell Viability Assay (Promega, #G8082) or CellTiter-Glow® Luminescent Cell Viability assay (Promega #G7572) according to the manufacturer's instructions. The compounds were tested at 5 or 6 concentrations in half-log increments (highest concentration 30 μM or 100 μM) in duplicate or triplicate well conditions.
(§2) Tumor cells were grown at 37° C. in a humidified atmosphere with 5% CO2 in RPMI 1640 or DMEM medium, supplemented with 10% (v/v) fetal calf serum and 50 μg/ml gentamicin for up to 20 passages, and were passaged once or twice weekly. Cells were harvested using TrypLE or PBS buffer containing 1 mM EDTA, and the percentage of viable cells was determined using a CASY Model TI cell counter (OMNI Life Science). Cells were harvested from exponential phase cultures, counted and plated in 96 well flat-bottom microtiter plates at a cell density depending on the cell line's growth rate (4,000-20,000 cells/well depending on the cell line's growth rate, up to 60,000 for hematological cancer cell lines) in RPMI 1640 or DMEM medium supplemented with 10% (v/v) fetal calf serum and 50 μg/ml gentamicin (140 μl/well). […] Viability of cells was quantified by the CellTiter-Blue® cell viability assay (Promega G8081) or CellTiter-Glow® Luminescent Cell Viability assay (Promega #G7572). […]

The subject of assay [2] is HCT-15. Nature of the assay: Cell viability assay, HCT-15. The note with it: colon carcinoma cell line HCT-15. As to the method: as §1, §2
In assay [3] the test system is KI-12-0062. Briefly: Cell viability, kidney PDX KI-12-0062. Here is the method: (§3) PDX-derived cell cultures were obtained from tumors explanted from mice and isolated by mechanical and enzymatic dissociation. […] Cells were harvested and seeded in 96-wells plates at a density of 1.25 to 5×10^3 cells/well for cytotoxicity assays. Cells were incubated 48 h at 37° C. prior to addition of test molecules and vehicle (DMSO, 0.1%) at desired final concentrations. Cell viability was assessed before drugs' addition (To) and 5 days after test molecules addition by measuring ATP cell content using CellTiter-Glo® Luminescent Cell Viability Assay (Promega) according to the manufacturer's instructions. Luciferase activity was measured on a luminometer (PerkinElmer® EnVision™). Each concentration of compounds was tested in triplicate.
(§4) Viability was calculated as a percentage of ATP value compared to vehicle treated controls.
(§5) For PDX primary cell cultures, the tumour tissue was washed with PBS containing antibiotic-antimycotic and non-tumour tissue and necrotic tumour tissues were separated. The tumour tissue was transferred to a new dish and cut into 1˜2 mm^3 fragments, resuspended in RPMI-1640 medium and centrifuged at 1,200 rpm for 6 min at room temperature. The pelleted material was resuspended with 15 mL of Tumour Cell Digestion Solution and incubated at 37° C. for 1 hour with agitation. Following further addition of media, centrifugation and passage through a 70 μm cell strainer, the homogenous cell mixture was layered onto 15 mL of Ficoll-Paque PLUS in a 50 mL conical tube and centrifuged for 15 min at 1,600 rpm. The interface cells were collected, washed with media, separated by centrifugation at 1,200 rpm. The cell pellet was resuspended in serum free media supplemented with growth factors. 10,000 cells/wells were plated in a 96 well plate and incubated at 37° C., 5% CO2, 95% air and 100% relative humidity overnight. The cytotoxicity assay was conducted as above.
(§6) Sigmoidal concentration-response curves were fitted to the data points (test-versus-control, T/C values) obtained for each tumor model using GraphPad prism 5.02 software.

The subject of assay [4] is EN-11-0101. Briefly: Cell viability, endometrial PDX EN-11-0101. As to the method:
as §3, §4, §5, §6

In assay [5] the test system is HT-29. Briefly: Cell viability assay, HT-29. The note with it: colon carcinoma cell line HT-29. As to the method:
as §1, §2

Assay [6] deals with HN-13-0020. Nature of the assay: Cell viability, head and neck PDX HN-13-0020. Here is the method: as §3, §4, §5, §6
The test system of assay [7] is LU-01-0010. Briefly: Cell viability, lung PDX LU-01-0010. As to the method: as §3, §4
(§7) For PDX primary cell cultures, the tumour tissue was washed with PBS containing antibiotic-antimycotic and non-tumour tissue and necrotic tumour tissues were separated. The tumour tissue was transferred to a new dish and cut into 1˜2 mm^3 fragments, resuspended in RPMI-1640 medium and centrifuged at 1,200 rpm for 6 min at room temperature. The pelleted material was resuspended with 15 mL of Tumour Cell Digestion Solution and incubated at 37° C. for 1 hour with agitation. […]

Assay [8] concerns PC-07-0059. Nature of the assay: Cell viability, pancreatic PDX PC-07-0059. As to the method: as §3, §4, §7
The subject of assay [9] is CO-04-0700. Briefly: Cell viability, colon PDX CO-04-0700. As to the method:
as §3, §4, §7

The subject of assay [10] is KM-12. Nature of the assay: Cell viability assay, KM-12. The note with it: colon carcinoma cell line KM-12. As to the method:
as §1, §2

Assay [11] deals with CH-17-0091. Nature of the assay: Cell viability, bile duct PDX CH-17-0091. Here is the method:
as §3, §4, §7

Assay [12] deals with BR-05-0399. Nature of the assay: Cell viability, breast PDX BR-05-0399. Here is the method:
as §3, §4, §7

The subject of assay [13] is OVCAR-3. Nature of the assay: Cell viability assay, OVCAR-3. Particulars: ovarian carcinoma OVCAR-3. As to the method:
as §1, §2

Assay [14] relates to OVXF 899. Briefly: Cell viability assay, OVXF 899. The note with it: ovarian carcinoma OVXF 899. Here is the method: as §1, §2
Assay [15] deals with ST-02-0322. Briefly: Cell viability, stomach PDX ST-02-0322. As to the method: as §3, §4, §7
Assay [16] has as its system SF-268. Nature of the assay: Cell viability assay, SF-268. The note with it: brain carcinoma cell line SF-268. Here is the method: as §1, §2
Assay [17] deals with ME-21-0028. Nature of the assay: Cell viability, skin melanoma PDX ME-21-0028. As to the method:
as §3, §4, §5, §6

Assay [18] deals with HCT-116. Briefly: Cell viability assay, HCT-116. The note with it: colon carcinoma cell line HCT-116. As to the method: as §1, §2
The mark [19] stands for this setting: kidney PDX KI-12-0062, read-out: IC50.
[20] abbreviates: endometrial PDX EN-11-0101, read-out: IC50.
The mark [21] stands for this setting: head and neck PDX HN-13-0020, read-out: IC50.
[22] abbreviates: skin melanoma PDX ME-21-0028, read-out: IC50.

The IC50 is the concentration needed to halve the response being measured. Take `COc1c(O)ccc2c(=O)c(O)c(-c3ccc(CCCC[P+](c4ccccc4)(c4ccccc4)c4ccccc4)cc3)oc12` [SND190, (4-(4-(3,7-Dihydroxy-8-methoxy-4-oxo-4H1-chromen-2-yl)phenyl)butyl)triphenylphosphonium bromide]: the IC50 in assay [1] (Homo sapiens) is 0.79 µM; in assay [2] (Homo sapiens), 15 µM; in assay [3] (setting [19]) it was 15.1 µM; in assay [3] (text summary of Table 11 (kidney PDX), read-out: IC50, kidney PDX growth), under 20 µM; in [4] (Table 8, read-out: IC50, endometrial PDX growth) it was under 20 µM; in assay [4] (setting [20]), 7.9 µM. The IC50 is 5.78 µM in assay [5] (Homo sapiens); 2.26 µM in [6] (setting [21]); under 5 µM in assay [6] (summary of Table 10, read-out: IC50, head and neck PDX growth); 1.1 µM in [7]; 2.3 µM in assay [8]; 2.4 µM in [9]. Further, the 50% inhibitory concentration (IC50) turned out to be 1.7 µM in assay [10] (Homo sapiens, KM12); 4 µM in assay [11]; 5.4 µM in [12]; 3.81 µM in [13] (Homo sapiens); 8.76 µM in [14]; 6.3 µM in [15]. In addition, the half-inhibitory concentration (IC50) in [16] (Homo sapiens) is 4.1 µM; in assay [17] (setting [22]), 2.2 µM; in assay [17] (text summary of Table 21, read-out: IC50, skin melanoma PDX growth) it was under 20 µM; in assay [18] (Homo sapiens), 0.81 µM.

Take `O=c1cc(-c2ccc(CCC[P+](c3ccccc3)(c3ccccc3)c3ccccc3)cc2)oc2c(O)c(O)ccc12` [SND200, (3-(4-(7,8-Dihydroxy-4-oxo-4H1-chromen-2-yl)phenyl)propyl)triphenylphosphonium bromide]: the IC50 was 0.42 µM in assay [1]; 7.49 µM in [2]; 14.5 µM in assay [3] (setting [19]); 10.4 µM in [4] (setting [20]); 3.31 µM in assay [5]; 4.1 µM in assay [6] (setting [21]). The IC50 in assay [7] was determined as 10 µM; in assay [8], 6.7 µM; in assay [9], 7.6 µM; in [10], 0.44 µM; in [11], 9.5 µM; in [12] it was 14.9 µM. The IC50 was determined as 1.6 µM in assay [13]; 6.37 µM in assay [14]; 8.5 µM in assay [15]; 7.83 µM in assay [16]; 10.9 µM in assay [17] (setting [22]); 1.48 µM in assay [18].
